Common to all, as to format: cell-based
The test system of experiment [1] is BRCA2 mutant ovarian tumor cell line PEO1. As to the kind of experiment: Cell sensitivity analysis on PEO1 cell line, single and combination treatment, Isobole plot. As for the experimental part: Cell sensitivity analysis was performed to evaluate the synergistic effect of LP-184 and Olaparib on PEO1 cell line, which is an established BRCA2 mutant ovarian tumor cell line. Cells were seeded onto 96-well plate and were continuously exposed to drug treatment for 8.5 days. IC50 data were obtained from Olaparib, LP-184 single treatment and combination treatment.
Cell sensitivity analysis was performed to evaluate the synergistic effect of LP-184 and Talazoparib on PEO1 cell line. Experiments were done as described above. […] Furthermore, the synergistic effect of Talazoparib and LP-184 co-treatment was analyzed by using an Isobole plot (FIG. 4D).

Experiment [2] concerns OVCAR3 (Ovarian). As to the kind of experiment: Bliss synergy score (MacSynergy II), LP-100 and PARP inhibitor, OVCAR3. Conditions: combination with LP-100, score >10 indicates synergy. As for the experimental part: (§1) This program allows the three-dimensional examination of drug interactions of all data points generated from the checkerboard combination of two inhibitors with Bliss-Independence model (not shown). Confidence bounds are determined from replicate data. […] The volumes of synergy or antagonism can be determined and graphically depicted in three dimensions and represent the relative quantity of synergism or antagonism per change in the two drug concentrations. Synergy and antagonism volumes are based on the Bliss independence model, which assumes that both compounds act independently on different targets. A set of predicted fractional responses faAB under the Bliss independence model is calculated as […] faB with faA and faB representing the fraction of possible responses, e.g. percent (%) inhibition, of compounds A and B at amounts dA and dB, respectively, and describes the percent inhibition of a combination of compounds A and B at amount (dA+dB).

Experiment [3] deals with 22RV1 (Prostate). As to the kind of experiment: Bliss synergy score (MacSynergy II), LP-100 and PARP inhibitor, 22RV1. The settings on record: combination with LP-100, score >10 indicates synergy. As for the experimental part: as §1
Where [4] appears, read: Homo sapiens, PEO1, 204 h, PEO1, 8.5 days, Olaparib and LP-184 together, FIG. 3C, read-out: IC50 of Olaparib and LP-184 co-treatment (concentration of each drug giving 50% cell growth inhibition together).
[5] abbreviates: Homo sapiens, PEO1, PEO1, Example 4, FIGS. 4A, 4B, read-out: IC50 single treatment.
[6] abbreviates: Homo sapiens, PEO1, PEO1, Talazoparib and LP-184 together, FIG. 4C, read-out: IC50 of Talazoparib and LP-184 co-treatment (concentration of each drug giving 50% cell growth inhibition together).
The mark [7] stands for this setting: PEO1, Olaparib and LP-184 co-treatment, Example 3.
The mark [8] stands for this setting: PEO1, Talazoparib and LP-184 co-treatment, Example 4.

Read-outs that look alike come from different tables or passages of the source.

Take `CC1=C(CN(O)C(N)=O)C2=C(C)C3(CC3)[C@@](C)(O)C(=O)C2=C1` [LP-184, (−)-hydroxyureamethyl acylfulvene]: the IC50 was found to be 13.9 nM in experiment [1] (setting [4]); 87.4 nM in experiment [1] (Homo sapiens, PEO1, 204 h, PEO1, Example 4, FIGS. 4A, 4B, read-out: IC50 single treatment); 108 nM in experiment [1] (Homo sapiens, PEO1, 204 h, PEO1, continuous exposure 8.5 days, Example 3, FIGS. 3A, 3B, read-out: IC50 single treatment); 87.4 nM in experiment [1] (setting [5]); 7.2 nM in experiment [1] (setting [6]). For the same compound, the figures for the “fold less in co-treatment compared to single drug treatment” value (“fold less in co-treatment” for short) in experiment [1] (setting [7]) and in experiment [1] (setting [8]) were 7.77 fold and 12.14 fold, respectively.
For `NC(=O)c1cccc2cn(-c3ccc([C@@H]4CCCNC4)cc3)nc12` [Niraparib], in experiment [2], the “Bliss Synergy Score between LP-100 and PARP inhibitor” value is 10.34.
For `O=C(c1cc(Cc2n[nH]c(=O)c3ccccc23)ccc1F)N1CCN(C(=O)C2CC2)CC1` [Olaparib, 4-[(3-[(4-cyclopropylcarbonyl)piperazin-4-yl]carbonyl)-4-fluorophenyl]met-hyl(2H)-phthalazin-1-one], the IC50 in experiment [1] (setting [4]) was found to be 279 nM; in experiment [1] (setting [6]), 3.6 nM; in experiment [1] (PEO1, continuous exposure 8.5 days, Example 3, FIGS. 3A, 3B, read-out: IC50 single treatment), 1250 nM. For the same compound, the “fold less in co-treatment” value in experiment [1] (setting [7]) is 4.48 fold. For the same compound, the “Bliss Synergy Score between LP-100 and PARP inhibitor” value in experiment [2] was determined as 12.19.
As to `CNCc1ccc(-c2[nH]c3cc(F)cc4c3c2CCNC4=O)cc1` [Rucaparib, 8-Fluoro-2-{4-[(methylamino)methyl]phenyl}-1,3,4,5-tetrahydro-6H-azepino[-5,4,3-cd]indol-6-one], the “Bliss Synergy Score between LP-100 and PARP inhibitor” value in experiment [3] was 18.57; in experiment [2] it was 14.11.
For the compound `Cn1ncnc1[C@H]1c2n[nH]c(=O)c3cc(F)cc(c23)N[C@@H]1c1ccc(F)cc1` [Talazoparib, (8S,9R)-5-fluoro-8-(4-fluorophenyl)-9-(1-methyl-1H-1,2,4-triazol-5-yl)-8,-9-dihydro-2H-pyrido[4,3,2de]phthalazin-3 (7H)-one], the IC50 in experiment [1] (setting [5]) is 13.1 nM. Besides, in experiment [1] (setting [8]), the “fold less in co-treatment” value came to 3.64 fold.

Values taken from US20240299322A1, “TREATING CANCERS WITH COMBINATIONS OF PARP INHIBITOR AND ACYLFULVENES” (LANTERN PHARMA INC., priority 2022, published 2024).
